Experimental data published in paper PMC11432087, “Hydrogen Sulfide-Releasing Carbonic Anhydrase Inhibitors Effectively Suppress Cancer Cell Growth” (International Journal of Molecular Sciences, 2024).
Like-named read-outs stand apart in the source and are kept apart here.

Columns and labels:
[1] = compound 150 µM, rat liver homogenate, 37 °C; cited from earlier work
[2] = Spectrophotometric methylene blue H2S release in phosphate buffer with or without thiols; conditions: 37 °C, with or without L-cysteine or glutathione
hCA II = conditions: stopped-flow CO2 hydrase assay, mean of three assays; cited from earlier work
hCA I = conditions: stopped-flow CO2 hydrase assay, mean of three assays; cited from earlier work
HCT-116 [3] = experiment: MTT antiproliferative assay, HCT-116 (normoxia and CoCl2-induced hypoxia); format: cell-based, human; conditions: for IC50 Normoxia / IC50 Hypoxia / IC50: HCT-116; for IC50: Homo sapiens, MTT, 72 h
Method: (§1) These cell lines were cultured as monolayers in Dulbecco’s Modified Eagle’s Medium (DMEM) supplemented with 10% FBS, 2 mM l-glutamine, 100 U/mL penicillin, and 100 µg/mL streptomycin sulfate. […] The cells were sub-cultured using trypsin/EDTA solution, counted with a hemocytometer, and plated on 96-well plates (5000 cells/well), allowing them to form a semi-confluent monolayer overnight. […] DMSO (100 µL/well) was then added to dissolve the formazan crystals with shaking for 10 min, after which the absorb absorbance was read at 590 nm against no-cell blanks using a FLuo Star Optima microplate reader (BMG technologies, Ortenberg, Germany). Cell proliferation was calculated by comparing the OD values of the DMSO control wells with those of the samples, represented as % proliferation relative to the control.

MDA-MB-231 = experiment: MTT antiproliferative assay, MDA-MB-231; format: cell-based; conditions: Homo sapiens, normoxic conditions, 72 h
Method: as §1

hCA IX [4] = conditions: stopped-flow CO2 hydrase assay, mean of three assays; cited from earlier work
A549 [5] = experiment: MTT antiproliferative assay, A549; format: cell-based; conditions: Homo sapiens, normoxic conditions, 72 h
Method: The human triple-negative breast cancer cell line (MDA-MB-231), colon cancer cell line (HCT-116), and lung cancer cell line (A549) used in this study were obtained from the American Type Culture Collection (ATCC). These cell lines were cultured as monolayers in Dulbecco’s Modified Eagle’s Medium (DMEM) supplemented with 10% FBS, 2 mM l-glutamine, 100 U/mL penicillin, and 100 µg/mL streptomycin sulfate. […] The cells were sub-cultured using trypsin/EDTA solution, counted with a hemocytometer, and plated on 96-well plates (5000 cells/well), allowing them to form a semi-confluent monolayer overnight. […]. DMSO (100 µL/well) was then added to dissolve the formazan crystals with shaking for 10 min, after which the absorb absorbance was read at 590 nm against no-cell blanks using a FLuo Star Optima microplate reader (BMG technologies, Ortenberg, Germany). Cell proliferation was calculated by comparing the OD values of the DMSO control wells with those of the samples, represented as % proliferation relative to the control.

hCA IX [6] = experiment: Stopped-flow CO2 hydrase inhibition assay, hCA IX; format: biochemical, human; conditions: ratio of KIs
Method: (§2) An Applied Photophysics stopped-flow instrument (Applied Photophysics Ltd, Leatherhead, UK) was used for assaying the CA-catalyzed CO2 hydration activity. Phenol red (at a concentration of 0.2 mM) was used as an indicator, working at the absorbance maximum of 557 nm, with 20 mM Hepes (pH 7.5) as a buffer and 20 mM Na2SO4 for maintaining constant the ionic strength, following the initial rates of the CA-catalyzed CO2 hydration reaction for a period of 10−100 s. The CO2 concentrations ranged from 1.7 to 17 mM for the determination of the kinetic parameters and inhibition constants. For each inhibitor, at least six traces of the initial 5−10% of the reaction were used for determining the initial velocity. The uncatalyzed rates were determined in the same manner and subtracted from the total observed rates. Stock solutions of inhibitor (0.1 mM) were prepared in distilled−deionized water and dilutions up to 0.01 nM were made thereafter with the assay buffer. Inhibitor and enzyme solutions were preincubated together for 15 min at room temperature before the assay to allow for the formation of the E−I complex. The inhibition constants were obtained by nonlinear least-squares methods using Prism 7 (GraphPad Software, La Jolla, CA, USA) and the Cheng−Prusoff equation and represent the mean of at least three different determinations. The enzyme concentrations were in the range of 3–11 nM. All hCA isoforms were recombinant ones obtained in-house.

hCA XII [7] = conditions: stopped-flow CO2 hydrase assay, mean of three assays; cited from earlier work
hCA IV [8] = experiment: Stopped-flow CO2 hydrase inhibition assay, hCA IV; format: biochemical, human; conditions: ratio of KIs
Method: as §2

hCA XII [9] = experiment: Stopped-flow CO2 hydrase inhibition assay, hCA XII; format: biochemical, human; conditions: ratio of KIs
Method: as §2

A549 [10] = experiment: Cell cycle analysis by DNA flow cytometry, A549; format: cell-based, human; conditions: A549, 24 h at IC50 concentration
Method: (§3) Following treatment, cells were washed twice with ice-cold phosphate-buffered saline (PBS). Subsequently, the treated cells were harvested through centrifugation, fixed in ice-cold 70% (v/v) ethanol, washed with PBS, re-suspended in 100 μg/mL RNase, stained with 40 μg/mL propidium iodide (PI), and subjected to flow cytometry analysis using FACS Calibur (Becton Dickinson, Franklin Lakes, NJ, USA). The cell cycle distributions were calculated using CellQuest software 5.1 (Becton Dickinson).

A549 [11] = experiment: Annexin V-FITC/PI dual staining apoptosis assay, A549; format: cell-based, human
Method: (§4) Phosphatidylserine externalization was evaluated using the Annexin V-FITC/PI apoptosis detection kit (BD Biosciences, USA), following the manufacturer’s guidelines. […] Subsequently, the cells were re-suspended in 100 μL of binding buffer with the addition of 1 μL of FITC-Annexin V, followed by a 30-min incubation at 4 °C. After rinsing in binding buffer, the cells were resuspended in 150 μL of binding buffer with the addition of 1 μL of DAPI (1 μg/μL in PBS). Flow cytometry analysis was performed using the BD FACS Canto II flow cytometer and the results were interpreted with FlowJo7.6.4 software (Tree Star, Ashland, USA).

HCT-116 [12] = experiment: Annexin V-FITC/PI dual staining apoptosis assay, HCT-116; format: cell-based, human
Method: as §4

hCA IV [13] = conditions: stopped-flow CO2 hydrase assay, mean of three assays; cited from earlier work
HCT-116 [14] = experiment: Cell cycle analysis by DNA flow cytometry, HCT-116; format: cell-based, human; conditions: HCT-116, 24 h at IC50 concentration
Method: as §3

[15] = chemically induced hypoxia with CoCl2·6H2O, read-out: IC50 HCT-116 (Hypoxia)
[16] = normoxic conditions, read-out: IC50 HCT-116 (Normoxia)
[17] = A549, treated at IC50 concentration
[18] = HCT-116, treated at IC50 concentration

Structure (SMILES) | H2S release half-life t/2 [1] | Ki (hCA II) | Ki (hCA I) | IC50 Normoxia / IC50 Hypoxia (HCT-116 [3]) | IC50 (HCT-116 [3]; [15]) | IC50 (HCT-116 [3]; [16]) | IC50 (MDA-MB-231) | Ki (hCA IX [4]) | IC50 (A549 [5]) | hCA II/hCA IX selectivity ratio (hCA IX [6]) | Ki (hCA XII [7]) | hCA II/hCA IV selectivity ratio (hCA IV [8]) | hCA II/hCA XII selectivity ratio (hCA XII [9]) | Ki (hCA IV [13]) | other results
O=C(O)c1ccc(-c2cssc2=S)cc1 [Compound 3] | 3.1 min |  |  |  |  |  |  |  |  |  |  |  |  |  | Time of peak H2S release [1]: 20 min; H2S release in phosphate buffer [2]: minimal H2S release
NS(=O)(=O)c1ccc(CCN(Cc2ccc(Br)cc2)C(=O)c2ccc(-c3cssc3=S)cc2)cc1 [Compound 22] |  | 3.66 µM | 7.7 µM | 0.6 | 11.4 ± 0.22 µM | 6.62 ± 0.21 µM | 6.31 ± 0.22 µM | 0.0191 µM | 23.7 ± 1.61 µM | 192 | 0.0129 µM | 104 | 284 |  | 
NS(=O)(=O)c1ccc(CCN(Cc2cccc3ccccc23)C(=O)c2ccc(-c3cssc3=S)cc2)cc1 [Compound 30] | 5.0 min | 4.46 µM | > 10 µM | 2.5 | 0.93 ± 0.02 µM | 2.3 ± 0.14 µM | 9.59 ± 0.31 µM |  | 1.78 ± 0.04 µM | 286 | 0.007 µM | 18.3 |  | 0.244 µM | %G0-G1 (A549 [10]): 22.93%; %G2/M (A549 [10]): 34.96%; %S (A549 [10]): 20.77%; %Sub-G1 (A549 [10]): 21.34%; Fold increase in overall apoptosis compared to untreated control (A549 [11]; A549): 19.9 fold; Early Apoptosis (Lower Right %) (A549 [11]; [17]): 5.36%; Late Apoptosis (Upper Right %) (A549 [11]; [17]): 18.59%; Total apoptosis (A549 [11]; [17]): 23.95%; Fold increase in overall apoptosis compared to untreated control (HCT-116 [12]; HCT-116): 32.9 fold; Early Apoptosis (Lower Right %) (HCT-116 [12]; [18]): 10.23%; Late Apoptosis (Upper Right %) (HCT-116 [12]; [18]): 15.49%; Total apoptosis (HCT-116 [12]; [18]): 25.72%; Increase in cytotoxicity under hypoxia compared to normoxia (HCT-116 [3]; HCT-116, chemically induced hypoxia): 2 fold; Increase in activity concerning Staurosporine (HCT-116 [3]; HCT-116, hypoxic conditions): 10 fold; Increase in activity concerning Staurosporine (HCT-116 [3]; HCT-116, normoxic conditions): 5 fold; %G0-G1 (HCT-116 [14]): 28.22%; %G2/M (HCT-116 [14]): 31.39%; %S (HCT-116 [14]): 18.4%; %Sub-G1 (HCT-116 [14]): 21.99%
CSc1ccc(CN(CCc2ccc(S(N)(=O)=O)cc2)C(=O)c2ccc(-c3cssc3=S)cc2)cc1 [Compound 29] | 4.6 min | 9.65 µM | 7.21 µM | 0.8 | 12.7 ± 0.25 µM | 10.1 ± 0.66 µM | 3.25 ± 0.09 µM | 0.0462 µM | 60.9 ± 2.17 µM | 209 | 0.0084 µM | 29.3 | 1148 | 0.404 µM | 
